Data taken from patent US20150218523A1, “MANUFACTURE OF VASCULAR SMOOTH MUSCLE CELLS AND THE USE” (Agency for Science, Technology and Research, priority 2014, published 2015).

Columns and labels:
[1] = system: NCSMCs derived from hESC (H9); details: NCSMCs at 1% oxygen, drug 48 hr (minocycline 5 μM, losartan 5 μM), then labeled Aβ for 1 hr
Procedure: NCSMCs and BVSMCs were routinely cultured at 21% oxygen and 1% oxygen to simulate normoxic and chronic hypoxic conditions, respectively. Twenty one percent O2 SMCs were seeded at 30,000 cells/well onto 96-well plate as positive controls. One percent O2 SMCs were seeded at the same density as negative controls and experimental samples for drug treatment on the same plate. The 96-well plate was incubated at 37° C. overnight at 21% O2. After cell attachment, 2 mg/ml of fluorescently labeled amyloid peptide (Aβ42-Hilyte Fluor 555 or Aβ40-Hilyte Fluor 488, Anaspec) was added to SMCs for a 1 hr uptake at 37° C. After Aβ uptake, cells were dissociated into single-cell suspension for high-throughput flow cytometry by LSRFortessa plate analyzer. Respective Z factors for NCSMC and BVSMC Aβ uptake assays were calculated based on their mean fluorescence brightness (normalized to no-uptake controls) and SDs of positive (21% O2) and negative (1% O2) controls. […] Mean fluorescence brightness signals (normalized to no-uptake control) indicated the degree of amyloid uptake.
NCSMC were treated with the following reference compounds for 48 hours at 37° C. prior to Aβ uptake. […]
The NCSMC and BVSMC cultures were scaled down to 96-well format. […] Cells were incubated with labeled Aβ40 and Aβ42 (2 mg/ml) for an hour and subsequently evaluated by high-throughput flow cytometry.

SMC subtypes = experiment: SMC contraction study; assay type: cell-based, human; details: angiotensin II 0.5 μM, 10 min, all SMC subtypes, n=30
Procedure: SMCs were preloaded with the calcium-sensitive fluorophore, Fluo-4 AM (2.5 μM; Molecular Probes) at 37° C. for an hour. Contraction was induced by treating the cells with angiotensin II (0.5 μM, Sigma). Contraction pictures and intracellular calcium flux videos of SMCs were acquired by a time-lapse microscope live cell imaging microscope (Zeiss Axiovert 200M) during 10 minutes of angiotensin II treatment. Change of cell surface area was assessed by ImageJ software.

Molecule | Effect on Aβ uptake (Aβ40 and Aβ42) over the vehicle control [1] | Reduction of cell surface area in contracting SMCs (SMC subtypes)
CCCCc1nc(Cl)c(CO)n1Cc1ccc(-c2ccccc2-c2nn[nH]n2)cc1 [losartan] | may not have any apparent effect | 
angiotensin II (DRVYIHPF; Angiotensin-2; UniProt P01019 25-32, looked up) [vasoconstrictor, an inducer of contraction (0.5 μM, Sigma)] |  | 18%-21%
